Reference: patent publication US8236843B2, “Anti inflammatory compounds” (Elder Pharmaceuticals Ltd., priority 2008, dated 2012)
Where two headings read alike, the source gives them in different places.

Key:
[1] = tested on: Wistar rats; assay: Carrageenan-induced rat paw edema model; type: in vivo; conditions: 10 mg/kg oral, 2 h before carrageenan; for Anti-inflammatory activity in Wistar rats (% inhibition) 3 h: paw edema at 3 h; for Anti-inflammatory activity in Wistar rats (% inhibition) 4 h: paw edema at 4 h
Protocol: (§1) Male Wistar rats weighing 175-200 g and Swiss albino mice weighing 20-25 g were housed in the Animal Care Facility. The animals were fed standard laboratory feed and tap water. Unless otherwise noted, in all experiments described in the following text, the sample size in each group was at least 6.
In Vivo Screening Method, Carrageenan-Induced Rat Paw Edema Model
Male Wistar rats (120-140 gm) were fasted for 16 hour before the experiment. Anti-inflammatory activity was evaluated by carrageenan-induced paw edema test in rats. Diclofenac sodium, tolfenamic acid and celecoxib at 10 mg/kg were administered as standard drugs for comparison. The test molecules were administered at dose level 10 mg/kg. Molecules were suspended in 0.25% carboxymethylcellulose (CMC) and administered orally in a volume of 10 ml/kg, 2 hour before carrageenan injection. Paw edema was induced in rats by intradermal injection of 50 μl, of 1% λ-carrageenan in saline into the planer surface of right hind paw. The volume of the injected paw was measured hourly thereafter for 4 hours using plethysmometer (Ugo-Basile, Italy). Paw edema was compared with vehicle controlled group and percentage inhibition was calculated.

[2] = tested on: Swiss albino mice; assay: Analgesic activity against acetic acid induced writhing; type: in vivo; conditions: 10 mg/kg p.o., 1 h before i.p. 0.6% acetic acid; writhes counted for 10 min
Source text: as §1
Analgesic Activity Against Acetic Acid Induced Writhing
Pain was induced by injection of irritant i.e. acetic acid into the peritoneal cavity of mice. […] Vehicle (1% w/v carboxymethylcellulose (CMC), 0.5 ml per orally (p.o.)) was given to control group (n=6 per group) of mice. […]. One hour following the administration of test molecule, 0.1 ml/100 gm of 0.6% v/v acetic acid solution was injected intraperitoneally to each of the test mice. The number of writhes that occurred within the next 10 min following acetic acid administration was counted and recorded. Results were expressed as percentage inhibition of writhing.

[3] = tested on: Wistar rats; conditions: for Gastric score: 100 mg/kg oral, fasted rats, 5 hours, sum of lesion lengths, mean SEM, 6 rats; for Histopathology study (ulcerogenecity): Dose 100 mg/kg oral, rat stomach
Protocol: (§2) Assessment of Gastric Ulcerogenic Effects in the Rat on Acute Administration of Drugs
(§3) Groups of 6 male Wistar rats weighing 120-140 g were fasted for 24 h with free access to water. […] The lengths (in millimeters) of all hemorrhagic lesions were measured and the “gastric damage score” was calculated for each stomach by summing these values. After scoring the damage, a sample of the corpus region of each stomach was fixed in neutral buffered formalin for subsequent histologic assessment.

[4] = Acute oral toxicity studies (OECD AOT No. 425); conditions: both sexes, mouse, in vivo, albino mice, observed 48 hrs
Protocol: Acute Oral Toxicity Studies
The mice were observed continuously for 2 h for behavioral, neurological and autonomic profiles for any lethality or death for next 48 hrs. Based on the results obtained from this study, lethal dose (LD50) was calculated.

[5] = tested on: Wistar rats; conditions: rat, in vivo, po, 100 mg/kg
Protocol: as §2, §3

| melting point [°C] | SMILES | Anti-inflammatory activity in Wistar rats (% inhibition) 3 h [1] [%] | Anti-inflammatory activity in Wistar rats (% inhibition) 4 h [1] [%] | Analgesic activity in Swiss albino mice (% inhibition) [2] [%] | other results |
| --- | --- | --- | --- | --- | --- |
| – | O=C(O)c1ccccc1-c1ccc(Cn2cnc([N+](=O)[O-])c2)cc1 [4′-(4-Nitro-imidazol-1-ylmethyl)-biphenyl-2-carboxylic acid] | 38.31 | 44.63 | 84.13 | Gastric score [3]: 1.6 ± 0.50; Histopathology study (ulcerogenecity) [3]: No sign of ulceration |
| – | Cc1ccc(-c2cc(C(F)(F)F)nn2-c2ccc(S(N)(=O)=O)cc2)cc1 [Celecoxib, reference compound] | 45.24 | 45.32 | 77.0 | LD50 at 48 h [4]: < 2000 mg/kg; Histopathology study (ulcerogenecity) [5]: No sign of ulceration |
| 202 to 204 | O=[N+]([O-])c1cn(Cc2ccc(-c3ccccc3-c3nnn[nH]3)cc2)cn1 | – | – | – | – |
| – | Cc1ncc([N+](=O)[O-])n1Cc1ccc(-c2ccccc2C#N)cc1 [4′-(2-Methyl-5-nitro-imidazol-1-ylmethyl)-biphenyl-2-carbonitrile] | 19.52 | 24.25 | 84.25 | – |
| – | Cc1c(Cl)cccc1Nc1ccccc1C(=O)O [Tolfenamic acid] | – | – | – | LD50 at 48 h [4]: < 550 mg/kg; Histopathology study (ulcerogenecity) [5]: Shows sign of |
| 154 to 155 | NS(=O)(=O)c1ccc(Nc2ccccc2-c2ccc(Cn3cc([N+](=O)[O-])nc3CO)cc2)cc1 [Formula (I) Sr. No. 7, 4-[4′-(2-Hydroxymethyl-4-nitro-imidazol-1-ylmethyl)-biphenyl-2-ylamino]-benzenesulfonamide] | – | – | – | – |
| 222 to 225 | Cc1nc([N+](=O)[O-])c(Br)n1Cc1ccc(-c2ccccc2C(=O)O)cc1 | – | – | – | – |
| – | O=C(O)Cc1ccccc1Nc1c(Cl)cccc1Cl [Diclofenac sodium, reference compound] | 35.05 | 39.99 | 89.51 | – |
| – | N#Cc1ccccc1-c1ccc(Cn2cnc([N+](=O)[O-])c2)cc1 [4′-(4-Nitro-imidazol-1-ylmethyl)-biphenyl-2-carbonitrile] | 35.82 | 44.28 | 86.61 | Gastric score [3]: 1.83 ± 0.54; Histopathology study (ulcerogenecity) [3]: No sign of ulceration |
| 158 to 162 | Cc1nc([N+](=O)[O-])c(Br)n1Cc1ccc(-c2ccccc2C#N)cc1 | – | – | – | – |
